Patent publication US20240002375A1, “2-(INDAZOL-5-YL)-6-(PIPERIDIN-4-YL)-1,7-NAPHTHYRIDINE DERIVATIVES AND RELATED COMPOUNDS AS MODULATORS FOR SPLICING NUCLEIC ACIDS AND FOR THE TRE” (REMIX THERAPEUTICS INC., priority 2020, published 2024)
Counter-ions that a name gives are not always drawn.

What was measured:
Assay type in all cases: cell-based
[1] = system: HTT mRNA; experiment: Splicing assay (RT-qPCR) of HTT mRNA alternative junction (AJ) and canonical junction (CJ); conditions: A673 or K562 cells, 24 hours; for IC50: decrease in CJ mRNA, read-out: HTT CJ IC50; for AC50: increase in AJ mRNA, read-out: HTT AJ AC50
In short: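 A673 (adherent, 24 h pre-plating) or K562 cells treated 24 h at 37 °C with an 11-point 3-fold dilution series, top 10 uM, DMSO ≤0.25%. Lysates analysed by one-step RT-qPCR for HTT canonical (CJ) and alternative-exon (AJ) junctions, normalised to PPIA (A673) or GAPDH/GUSB (K562).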

[2] = system: HTT CJ mRNA; experiment: Gene panel canonical junction qPCR splicing assay, HTT; conditions: Table 4, read-out: HTT IC50 (decrease in CJ mRNA levels)
In short: (§1)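 A673 or K562 cells treated with compound; canonical-junction mRNA measured by RT-qPCR with junction-spanning primer/probe sets, normalized to GAPDH, GUSB or PPIA and DMSO (2^−ΔΔCt). IC50 for CJ decrease from 4-parameter logistic fit of percentage response.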

[3] = system: SMN2 CJ mRNA; experiment: Gene panel canonical junction qPCR splicing assay, SMN2; conditions: Table 4, read-out: SMN2 IC50 (decrease in CJ mRNA levels)
In short: as §1

[4] = system: Target C CJ mRNA; experiment: Gene panel canonical junction qPCR splicing assay, Target C; conditions: Table 4, read-out: Target C IC50 (decrease in CJ mRNA levels)
In short: as §1

Compound	IC50 [1]	AC50 [1]	IC50 [2]	IC50 [3]	IC50 [4]
Cn1cc2c(O)c(-c3ncc4nc(C5CCNCC5)ccc4n3)ccc2n1 [Compound 108, 2-methyl-5-[6-(piperidin-4-yl)pyrido[3,2-d]pyrimidin-2-yl]indazol-4-ol]	1000 to 10000 nM	1000 to 10000 nM	1000 to 10000 nM	< 100 nM	1000 to 10000 nM
Cn1cc2cc(-c3ccc4nc(C5CCNCC5)ccc4n3)c(O)c(F)c2n1 [Compound 102, 7-fluoro-2-methyl-5-[6-(piperidin-4-yl)-1,5-naphthyridin-2-yl]indazol-6-ol]	< 100 nM	< 100 nM	< 100 nM	< 100 nM	< 100 nM
Cc1nc2c(F)c(O)c(-c3ccc4nc(N5CC[C@@H](NC(C)(C)C)C5)ccc4n3)cc2o1 (single isomer, unassigned) [Compound 256, 6-{6-[3-(tert-butylamino)pyrrolidin-1-yl]-1,5-naphthyridin-2-yl}-4-fluoro-2-methyl-1,3-benzoxazol-5-ol]	< 100 nM	< 100 nM	< 100 nM	< 100 nM	< 100 nM
Cc1c(O)c(-c2ccc3nc(N4CC[C@@H](NC5(C)CC5)C4)ccc3n2)cc2cn(C)nc12 (single isomer, unassigned) [Compound 225]	< 100 nM	< 100 nM	< 100 nM	< 100 nM	< 100 nM
CC(C)(C)NC1CCN(c2ccc3nc(-c4cc5cnccc5cc4O)ccc3n2)C1 (stereo not shown) [Compound 166, 7-{6-[3-(tert-butylamino)pyrrolidin-1-yl]-1,5-naphthyridin-2-yl}isoquinolin-6-ol]	> 10000 nM	> 10000 nM	> 10000 nM	> 10000 nM	> 10000 nM
Cc1cn2cc(-c3ccc4nc(C5CCNCC5)ccc4n3)c(O)c(C)c2n1 [Compound 151, 2,8-dimethyl-6-(6-(piperidin-4-yl)-1,5-naphthyridin-2-yl)imidazo[1,2-a]pyridin-7-ol hydrochloride]	100 to 1000 nM	100 to 1000 nM	100 to 1000 nM	100 to 1000 nM	100 to 1000 nM
Cn1cc2cc(-c3ccc4nc(N5CC[C@@H](NCC6CC6)C5)ccc4n3)c(O)cc2n1 [Compound 195]	100 to 1000 nM	< 100 nM	100 to 1000 nM	< 100 nM	100 to 1000 nM
Cn1cc2cc(-c3ccc4nc(C5CCNCC5)ccc4n3)c(C(F)F)cc2n1 [Compound 196, 2-[6-(difluoromethyl)-2-methylindazol-5-yl]-6-(piperidin-4-yl)-1,5-naphthyridine]	> 10000 nM	> 10000 nM	> 10000 nM	1000 to 10000 nM	> 10000 nM
Cn1cc2cc(-c3ccc4nc(N5CC[C@]67CCN[C@H]6CC[C@H]57)ccc4n3)c(O)cc2n1 [Compound 160, 5-{6-[(1R,55,85)-4,9-diazatricyclo[6.3.0.0^{1,5}]undecan-4-yl]-1,5-naphthyridin-2-yl}-2-methylindazol-6-ol]	100 to 1000 nM	100 to 1000 nM	100 to 1000 nM	< 100 nM	1000 to 10000 nM
Cn1cc2cc(-c3ccc4nc(N5CCN6CCCC6C5)ccc4n3)c(O)cc2n1 (stereo not shown) [Compound 134, 5-(6-[hexahydro-1H-pyrrolo[1,2-a]pyrazin-2-yl]-1,5-naphthyridin-2-yl)-2-methylindazol-6-ol]	1000 to 10000 nM	1000 to 10000 nM	1000 to 10000 nM	< 100 nM	1000 to 10000 nM
Cc1nc2cc(O)c(-c3ccc4nc(N5CC[C@@H](NC6(C)CC6)C5)ccc4n3)cc2o1 (single isomer, unassigned) [Compound 258, 2-methyl-6-(6-{3-[(1-methylcyclopropyl)amino]pyrrolidin-1-yl}-1,5-naphthyridin-2-yl)-1,3-benzoxazol-5-ol]	< 100 nM	< 100 nM	< 100 nM	< 100 nM	100 to 1000 nM
CCC1CN(c2ccc3nc(-c4cc5cn(C)nc5cc4O)ccc3n2)CCN1 (stereo not shown) [Compound 119, 5-[6-(3-ethylpiperazin-1-yl)-1,5-naphthyridin-2-yl]-2-methylindazol-6-ol]	100 to 1000 nM	1000 to 10000 nM	100 to 1000 nM	< 100 nM	1000 to 10000 nM
Cc1nc2c(C)c(O)c(-c3ccc4nc(N5CCC(NC6CC6)C5)ccc4n3)cc2o1 (single isomer, unassigned) [Compound 216, 6-{6-[3-(cyclopropylamino)pyrrolidin-1-yl]-1,5-naphthyridin-2-yl}-2,4-dimethyl-1,3-benzoxazol-5-ol]	< 100 nM	< 100 nM	< 100 nM	< 100 nM	< 100 nM
Cn1cc2cc(-c3ccc4nc(N5CC[C@H](NC6(C)CC6)C5)ccc4n3)c(O)c(F)c2n1 (single isomer, unassigned) [Compound 222, 7-fluoro-2-methyl-5-{6-[(3 S)-3-[(1-methylcyclopropyl)amino]pyrrolidin-1-yl]-1,5-naphthyridin-2-yl}indazol-6-ol]	< 100 nM	< 100 nM	< 100 nM	< 100 nM	< 100 nM
Cc1nc2cc(O)c(-c3ccc4nc(N5CC[C@@H](NC(C)C)C5)ccc4n3)cc2o1 (single isomer, unassigned) [Compound 232, 6-{6-[3-(isopropylamino)pyrrolidin-1-yl]-1,5-naphthyridin-2-yl}-2-methyl-1,3-benzoxazol-5-ol]	< 100 nM	< 100 nM	< 100 nM	< 100 nM	< 100 nM
Cn1cc2cc(-c3ccc4nc(C5CCNCC5)ccc4n3)cc(F)c2n1 [Compound 185, 2-(7-fluoro-2-methylindazol-5-yl)-6-(piperidin-4-yl)-1,5-naphthyridine]	1000 to 10000 nM	1000 to 10000 nM	1000 to 10000 nM	100 to 1000 nM	1000 to 10000 nM
Cc1nc2c(C)c(O)c(-c3ccc4nc(N5CCC(NC6CC6)C5)ccc4n3)cc2o1 (single isomer, unassigned) [Compound 217, 6-{6-[3-(cyclopropylamino)pyrrolidin-1-yl]-1,5-naphthyridin-2-yl}-2,4-dimethyl-1,3-benzoxazol-5-ol]	< 100 nM	< 100 nM	< 100 nM	< 100 nM	< 100 nM
Cn1cc2nc(-c3ccc4nc(C5CCNCC5)ccc4n3)c(F)cc2n1 [Compound 205, 2-{6-fluoro-2-methylpyrazolo[4,3-b]pyridin-5-yl}-6-(piperidin-4-yl)-1,5-naphthyridine]	1000 to 10000 nM	1000 to 10000 nM	1000 to 10000 nM	1000 to 10000 nM	1000 to 10000 nM
Cn1cc2cc(-c3ccc4nc(N5CCC(N)C5)ccc4n3)c(O)c(F)c2n1 (stereo not shown) [Compound 238, 5-[6-(3-aminopyrrolidin-1-yl)-1,5-naphthyridin-2-yl]-7-fluoro-2-methylindazol-6-ol]	< 100 nM	< 100 nM	< 100 nM	< 100 nM	< 100 nM
Cc1cn2nc(-c3ccc4nc(C5CCNCC5)ccc4n3)c(O)c2c(C)n1 [Compound 150, 4,6-dimethyl-2-[6-(piperidin-4-yl)-1,5-naphthyridin-2-yl]pyrazolo[1,5-a]pyrazin-3-01]	< 100 nM	< 100 nM	< 100 nM	< 100 nM	< 100 nM
